Experimental data taken from patent US6319952A, “Compositions and methods for reversibly increasing permeability of biomembranes” (D-Pharm Ltd., priority 1997, dated 2001).
“Also recorded” adds a separate entry of the source.

Key:
[1] = tested on: bovine brain capillary endothelial cells (actin filaments); test: Actin staining of endothelial cells (fluorescent microscopy); type: cell-based
Experimental: To investigate the origin of this modification of the permeability, fluorescent microscopy studies were undertaken. Actin filaments were localized with bodipy phallo?din (explanations in section 7.1.).
The medium was removed and filter-grown endothelial cells were washed gently twice with Ringer-Hepes buffer.
Filter-grown endothelial cells were fixed in 4% PAF (paraformadehyde, in PHS buffer supplemented with MgCl2, 2 mM and EGTA, 10 mM) for 15 min at 4° C.
PAF was removed and filter-grown endothelial cells were washed once with PHEMS buffer. The filter-grown endothelial cells can be stored in PHEMS buffer at 4° C.
The filter-grown endothelial cells were cut up in eight pieces in a large PHEMS buffer drop and stored in PHEMS. One piece was permeabilized with acetone at -20° C. for 1 min then stored in PHEMS buffer.
Actin filaments were localized with bodipy phallo?din (Molecular Probes, Inc.). The stain was dissolved in 1.5 ml of methanol (200 units/ml) but was used at 5 units/ml. 5 μl of stock solution was evaporated and redissolved in 200 μl of PHS buffer.
1/8 of permeabilized filter-grown endothelial cells was covered with 25 to 50 μl of stain solution, 30 min at room temperature in darkroom. The filter bearing the endothelial cells was rinsed twice with PHEMS buffer, once with water.
The filter-grown endothelial cells were mounted cell-side up on a microscope slide in mowiol. And was examined on a Leitz DMR microscope using oil immersion objectives.

[2] = tested on: bovine brain capillary endothelial cells in co-culture with astrocytes; test: Determination of lactate dehydrogenase (LDH) in the medium of endothelial cells in coculture; type: cell-based
Experimental: In the same experiments, lactate dehydrogenase was assayed in the medium in order to check the toxicity. This cytoplasmic enzyme is not able to cross the cellular membrane except if the membrane integrity is destroyed. An increase in the release of Lactate Dehydrogenase (LDH) indicates a breakdown of the cellular membrane, leading to a cellular death. In other words, the LDH determination in the medium allows an assessment of cell viability. […]

[3] = tested on: bovine brain capillary endothelial cells in co-culture with astrocytes; test: Reversibility of DP-BFA effect on the paracellular permeability of the BBB in vitro; type: cell-based; conditions: for permeability of the monolayer for sucrose and inulin: 1 hour incubation
Experimental: In regard with the previous results, 0.16 mg/ml (paracellular opening after 1 hr) and 0.32 mg/ml (paracellular and transcellular openings after 1 hr) were chosen to study the reversibility of the effect of DP-BFA.
Endothelial cells are cocultured 12 days, on the twelfth culture day DP-BFA was added to the cultures for 1 hour, and then removed by replacement of the culture medium. The cultures then were maintained for a further 24 hours without DP-BFA, and subsequently assayed for paracellular permeability.
(§1) Permeability studies were carried out on the monolayer of endothelial cells, using two paracellular tracers: inulin-^3 H and sucrose-^14C.

[4] = tested on: bovine brain capillary endothelial cells in co-culture with astrocytes; test: Reversibility kinetic of DP-BFA effect on the paracellular permeability of the BBB in vitro; type: cell-based
Experimental: Endothelial cells are cocultured 12 days, and on the twelfth day DP-BFA was added to the cultures for one hour. The cultures were then washed to remove the test material and cultured for a further period of 3, 6 or 18 hours without DP-BFA.
as §1

[5] = tested on: ipsilateral hemisphere of the brain; test: Methotrexate content of brains of rats pretreated with M3,14 (DP-BFA); type: in vivo, rat; conditions: intra-arterial pre-treatment, carotid artery
[6] = 0.16 mg/ml 1 hr, then 24 hrs without DP-BFA
[7] = 0.16 mg/ml 1 hr, then 3 hrs fresh medium
[8] = 0.16 mg/ml 1 hr, then 6 hrs fresh medium
[9] = 0.16 mg/ml 1 hr, then 18 hrs fresh medium

## CCCCCCCCCCCCCCC(CCC)C(=O)O (stereo not drawn) [M 3/14, 2-propylhexadecanoic acid]
[1]; 0.08 mg/ml, 24 hrs
  endothelial cell morphology: significant morphological changes
  stress fibers (actin staining): increase in numerous densely packed stress fibers
[1]; [6]
  stress fibers (actin staining): less densely packed stress fibers
[1]; 0.16 mg/ml, 1 hr
  endothelial cell morphology: significant morphological changes
  stress fibers (actin staining): increase in numerous densely packed stress fibers
[1]; 0.16 mg/ml, 24 hrs
  interendothelial cell gaps: Interendothelial cell gaps in the monolayer could be seen
[2]; 0.16 mg/ml, 24 hrs incubation
  LDH release: significant increase in LDH release
  cytotoxic effect: cytotoxic effect
[2]; 1 hr incubation, paracellular study
  LDH release: no significant increase in LDH release
[2]; 1 hr incubation, transcellular study
  LDH release: No increase in release of LDH
[2]; 1 hr incubation, listed as DP-BFA
  cytotoxic effect: No cytotoxic effect; also recorded: not associated with cytotoxic effects
[2]; 24 hrs reversibility study
  cytotoxic effect: No cytotoxic effect
[2]; after 1 hr and after 24 hrs reversibility study
  LDH release: No increase in release of LDH
[2]; reversibility kinetic study
  LDH release: No increase in release of LDH
  cytotoxic effect: No cytotoxic effect
[3]; [6]
  reversibility of paracellular permeability (clearance at 45 minutes): complete reversibility
[3]; 0.16 mg/ml
  permeability of the monolayer for sucrose and inulin: increase in the permeability
[3]; 0.32 mg/ml 1 hr, then 24 hrs without DP-BFA
  decrease of paracellular permeability (clearance at 45 minutes): 50%
[3]; 0.32 mg/ml
  permeability of the monolayer for sucrose and inulin: increase in the permeability
[3]; 0.32 mg/ml, 1 hr
  paracellular breakdown (opening of the tight junctions): paracellular breakdown (opening of the tight junctions)
[3]; higher concentrations
  reversibility of DP-BFA effect: Partial reversibility
[4]; [7]
  decrease in paracellular permeability for inulin (clearance at 45 minutes): 58%
  decrease in paracellular permeability for sucrose (clearance at 45 minutes): 56%
[4]; [8]
  decrease in paracellular permeability for inulin (clearance at 45 minutes): 58%
  decrease in paracellular permeability for sucrose (clearance at 45 minutes): 57%
[4]; [9]
  decrease in paracellular permeability for inulin (clearance at 45 minutes): 76%
  decrease in paracellular permeability for sucrose (clearance at 45 minutes): 72%
[4]; 0.16 mg/ml 1 hr, after 3, 6 and 18 hrs
  reversibility of DP-BFA effect: incomplete reversibility
[4]; after 3 hours, preliminary kinetic study
  paracellular transport after removal: a decrease in the paracellular transport could be observed
[5]
  penetration of MTX into the ipsilateral hemisphere: significantly increased the penetration of MTX
